Experimental data published in the METLIN SMRT retention time set (Domingo-Almenara et al. 2019).

Test: gradient 5% acetonitrile 3 min, to 50% in 2 min, to 85% in 15 min, held 3 min, 100 µL/min
Conditions: column: Zorbax Extend-C18 2.1 x 50 mm; eluents: water / acetonitrile, 0.1% formic acid
Procedure, shortened: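 Values are retention times taken from adduct peaks that software picked and an analyst inspected. The pure standards were run as mixtures of ~100 molecules on HPLC linked to a quadrupole time-of-flight mass spectrometer, in positive and negative ionization mode. A Zorbax Extend-C18 column (2.1 × 50 mm, 1.8 μm) was used at 100 μL/min with water and acetonitrile, each including 0.1% formic acid.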

Row | SMILES | RP-LC retention time [s]
1 | Nc1nc2ccc(Cl)cc2c2nc(-c3ccco3)nn12 | 755
2 | Cc1cccc(C)c1Nc1c(-c2ccccc2F)nc2ccc(Br)cn12 | 893
3 | CCc1csc(-c2ccc(N3CCN(C(=O)Cc4ccc(F)cc4)CC3)nc2)n1 | 925
4 | Cc1nc2ccn(Cc3cccs3)c(=O)c2cc1C(=O)N1CCOCC1 | 648
5 | CCC(C)NC(=O)Cc1c[nH]c2ncccc12 (configuration not stated) | 562
6 | Cc1ccc(NC(=O)CN2C(=O)C3CCCCN3c3ccc(S(=O)(=O)N(C)C)cc32)cc1C (configuration not stated) | 922
7 | Cc1ccc(S(=O)(=O)N2C(=O)CCC2C(=O)N(C)C2CCCCC2)cc1C (configuration not stated) | 1010
8 | CN(C)c1cc(C(=O)NC2CC2)c2cccc(Cl)c2n1 | 746
9 | Cc1cc(Cl)ccc1S(=O)(=O)N1CCN(c2nc3ccncc3n(C)c2=O)CC1 | 615
10 | CNC(Cc1ccccc1)c1ccc(OC)cc1 (configuration not stated) | 567
11 | Cc1ccc2c(c1)N(S(C)(=O)=O)CCC(C(=O)NCc1ccccc1Cl)O2 (configuration not stated) | 945
12 | CCC(C)NC(=O)N1CCN(Cc2nc3cc(C(=O)N(C)C)ccc3o2)CC1 (configuration not stated) | 587
13 | CC(C)CN1CCN(Cc2nc(-c3ccc(N4CCCC(C)C4)nc3)no2)CC1 (configuration not stated) | 645
14 | CCN(CC)CCOCCOC(=O)C1(c2ccccc2)CCCC1 | 810
15 | c1cc(Cc2nc(-c3ccc4c(c3)ncn4CCN3CCCCC3)no2)cs1 | 632
16 | COc1ccc(NS(=O)(=O)c2cc3n(c2)CCCNC3=O)cc1Cl | 677
17 | CCc1nc(-c2ccc(OC3CCN(C(=O)c4sc(C)nc4C)C3)cc2)no1 (configuration not stated) | 696
18 | Cc1cc(C)n(Cc2nc(-c3ccc(NC(=O)Cc4ccc(Cl)cc4)cc3)oc2C)n1 | 997
19 | Cc1ncc2c(n1)C[C@@H]1CC[C@H]2N1C(=O)c1ccnn1C | 584
20 | CCOc1ccc(-c2cc(SCc3cccnc3)ncn2)cc1 | 690
21 | O=C(COc1cccc(Br)c1)Nc1nc(-c2ccccc2)cs1 | 1130

Row | SMILES | RP-LC retention time [s]
22 | Oc1ccc2ccc3[nH]cnc3c2c1 | 625
23 | CCc1ccc(NC(=O)Cn2nc3n(c2=O)CCCC3)cc1 | 669
24 | CC(Oc1ccc(=O)n(-c2ccc(F)cc2)n1)C(=O)Nc1cccc(Cl)c1 (configuration not stated) | 802
25 | CCC(=O)Nc1ccc2c(c1)N(C(=O)c1ccco1)CCC2 | 725
26 | CC(C)c1ccc(NC(=O)CN2C(=O)C3CCCCN3c3ccc(C(=O)N4CCOCC4)cc32)cc1 (configuration not stated) | 909
27 | CC(C(=O)N1CCN(C)CC1)n1c2ccccc2c2cnn(C)c(=O)c21 (configuration not stated) | 612
28 | CCn1cc(C(=O)NCc2ccc(C)cc2)c2cccnc21 | 811
29 | O=C1[C@H]2CN(Cc3ccccc3Cl)C[C@H]2C(=O)N1CCN1CCc2ccccc2C1 | 661
30 | O=C(O)c1nnn(-c2ccc(F)cc2)c1-c1ccncc1 | 612
31 | CCCNC(=O)c1ccc(-c2ccc(N3CCSCC3)nc2)cc1 | 666
32 | CCOC(=O)C1CCN(C(=O)Cn2cnc3nc4c(cc3c2=O)CCCC4)CC1 | 678
33 | CCCS(=O)(=O)N1CCCC(C)(C(=O)NCc2ccc(OC)cc2)C1 (configuration not stated) | 798
34 | COCCCn1cnc2c(-c3ccccc3)cn(CC(=O)NCc3ccc4c(c3)OCO4)c2c1=O | 855
35 | CN1CCN(CCCNC(=O)c2noc3c2CCCCC3)CC1 | 584
36 | CC1CC(C)CN(CCCNC(=O)c2ccc3c(c2)NC(=O)CS3)C1 (configuration not stated) | 605
37 | COc1ccc(-c2noc(Cn3c(=O)n(CC4CCCO4)c(=O)c4ccccc43)n2)cc1OC (configuration not stated) | 828
38 | Cc1ccc(-n2cccc2CC(=O)NCc2ccc(N3CCOCC3)cc2)cc1 | 877
39 | COc1cc(NC(=O)Nc2ccc3nc(N4CCN(C)CC4)cc(C)c3c2)cc(OC)c1OC | 574
40 | O=C(NCC(=O)N1CCc2ccccc21)Nc1cccc(Br)c1 | 894
41 | CCOC(=O)CCC(=O)N1CCC(Oc2nc3c(C)ccc(C)c3s2)CC1 | 1100
42 | Cc1nc(N2CCN(c3ncccn3)CC2)nc2c1C(=O)CC(/C=C/c1ccccc1)C2 (configuration not stated) | 1290

Row | SMILES | RP-LC retention time [s]
43 | CCC(C)(C)NS(=O)(=O)c1cc(-c2nc(C)c(C(=O)N3CCCC3)s2)cs1 | 863
44 | CCn1ccc(C(=O)N2CCCC2(CO)Cc2ccccc2)n1 (configuration not stated) | 790
45 | CCc1nnc(-c2coc(S(=O)(=O)N3CCN(C4CCCCC4)CC3)c2)o1 | 628
46 | CCOc1ccc(-c2cn3ccn(-c4ccc(F)c(Cl)c4)c(=O)c3n2)cc1 | 918
47 | CCOC(=O)c1c(S(=O)(=O)N2CCC(C(=O)NCc3ccccc3OC)CC2)c(C)n(C)c1C | 800
48 | O=C(c1csc(-c2cccnc2)n1)N1CCN(c2ncccn2)CC1 | 648
49 | CCN(C(=O)Cc1csc2nc(-c3ccccc3)cn12)c1ccccc1 | 852
50 | Cc1cccc(N2CCN(C(=O)c3cn(-c4ccc(C#N)cc4)cn3)CC2)c1 | 759
51 | COC(=O)c1ccc(NC(=O)Cn2c3cc(Cl)ccc3c(=O)n2C(C)(C)C)cc1 | 1300
52 | CCOC(=O)c1cccc(NC(=O)C2CCCN(c3ncnc4c3nc3n4CCCCC3)C2)c1 (configuration not stated) | 876
53 | Cc1ccc(-c2noc(CSc3nccn3-c3ccccc3)n2)cc1 | 938
54 | CC(C)(C)C(=O)N1CCCC1COc1ccc(C(=O)N2CCCC2)cc1 (configuration not stated) | 647
55 | COC1CN(c2cccc(F)c2)C12CCN(Cc1ccccn1)CC2 (configuration not stated) | 699
56 | COc1ncc(C(=O)NCc2ccc(SC)cc2)cn1 | 747
57 | Cc1cc2[nH]c(C(=O)Nc3ccc(F)c(F)c3)c(CN3CCOCC3)c2s1 | 740
58 | Cc1oc(-c2ccc(NC(=O)c3cccs3)cc2)nc1Cn1cccn1 | 836
59 | O=C(Cn1nc2n(c1=O)CCCC2)NCCc1ccc(Cl)cc1 | 678
60 | CCCN1N=C(C(=O)N2CCCCCC2)S(=O)(=O)c2ccc(C)cc21 | 991
61 | COc1ccc(NC(=O)C2CC(=O)N(c3cccc(NC(C)=O)c3)C2)cc1Cl (configuration not stated) | 709
62 | Cc1cccc(NC(=O)C2CC(=O)N(c3ccc4oc(C)nc4c3)C2)c1 (configuration not stated) | 708

Other lines, results leading:

Row | RP-LC retention time [s] | SMILES
63 | 1070 | CCc1ccc(/C=C2/SC(=S)NC2=O)cc1
64 | 584 | Cc1cc(C)n(-c2ccnc(NCCc3cccnc3)n2)n1
65 | 942 | Cc1cc(NC(=O)c2cc(C)n3nccc3n2)ccc1F
66 | 722 | CCOC(=O)c1c(C)[nH]c(C(=O)N2CCCC(C(=O)NCc3ccco3)C2)c1C (configuration not stated)
67 | 762 | COc1ccc(-c2nnc(Cc3nc(-c4ccc(C)cc4)no3)o2)cc1OC
68 | 746 | COCCCNC(=O)C1(c2ccc(NC(=O)c3cccs3)cc2)CC1
69 | 597 | O=C(Cn1c(=O)oc2ccccc21)N1CCC2(CC1)NCCc1c2[nH]c2ccccc12
70 | 674 | Cc1ccc(-c2nc3cccnc3n2CCCNC(=O)NCc2ccco2)cc1
71 | 698 | O=C(c1ccc(F)cc1F)N1CCC2(CC1)OCC(C(=O)N1CCCC1)N2C(=O)c1ccccc1 (configuration not stated)
72 | 688 | CC(C)Cc1ccc(S(=O)(=O)N2CCC3(CCC(CN4CCN(C)CC4)O3)CC2)cc1 (configuration not stated)
73 | 734 | CCOC(=O)c1ccc(NS(=O)(=O)c2c[nH]c3ncccc23)cc1
74 | 1070 | COc1ccc(NC(=O)N2CCN(c3nc4ccccc4nc3C(F)(F)F)CC2)c(OC)c1
75 | 691 | CN(C)CCCNC(=O)C1CCN(c2nc3ccc(-c4cccc(F)c4)nc3s2)CC1
76 | 672 | CCOC(=O)c1c(S(=O)(=O)N2CCC(C(=O)NC3CC3)CC2)c(C)n(C)c1C
77 | 767 | CCc1cc(C(=O)NCc2ccc(C)o2)nc2cc(-c3ccco3)nn12
78 | 628 | Cc1cc(C)cc(C(=O)NCc2ccc(N3CCOCC3)nc2)c1
79 | 776 | COC(=O)c1ccc(NC(=O)Cn2ccc3ccc(-c4nnc(C)o4)cc32)cc1
80 | 703 | O=C(NCC1CCOCC1)Nc1cc(F)cc(F)c1
81 | 608 | Cc1cc(N2CCN(C(=O)c3ccccc3F)CC2)nc(N2CCOCC2)n1
82 | 812 | O=C(NCc1ccc(F)cc1F)c1cc2n(n1)CCCC2
83 | 960 | O=C(Nc1ccc(S(=O)(=O)N2CCc3ccccc32)cc1)c1ccc(Br)o1
84 | 759 | CSc1ccc(Cl)c(C(=O)Nc2cccn3c(C)nnc23)c1
85 | 830 | Oc1c(CN2CCN(c3ccccc3)CC2)cc(Br)c2cccnc12
86 | 670 | COc1cc(OC)c(NC(=O)N2CCC(n3cnc4cccnc43)CC2)cc1Cl
87 | 731 | O=C1CC(C(=O)N2CCCC2)CN1CCc1c[nH]c2ccc(Cl)cc12 (configuration not stated)
88 | 1190 | Cc1ccccc1Cc1noc(-c2nc(-c3ccc4c(c3)OCO4)no2)n1
89 | 882 | CCN1C(=O)c2cccnc2Sc2cc(NC(=O)COc3ccc(F)c(F)c3)ccc21
90 | 907 | CCc1ccccc1NC(=O)N(C)CCc1noc(COc2ccccc2F)n1
91 | 871 | CCCCC(=O)Nc1nc(-c2ccc3c(c2)NC(=O)C(C)O3)c(C)s1 (configuration not stated)
92 | 793 | CC1=C(c2ccc(F)cc2)S(=O)(=O)N=C1N1CCCN(C(=O)NCC(C)C)CC1
